{"source": "patent US9346786B2", "about": "“Pyrrolidine compounds” (Hoffmann-La Roche Inc., priority 2009, dated 2016)", "target": "recombinant human NK3 receptor (Homo sapiens (Human), UniProt P29371)", "sequence (P29371 whole entry)": "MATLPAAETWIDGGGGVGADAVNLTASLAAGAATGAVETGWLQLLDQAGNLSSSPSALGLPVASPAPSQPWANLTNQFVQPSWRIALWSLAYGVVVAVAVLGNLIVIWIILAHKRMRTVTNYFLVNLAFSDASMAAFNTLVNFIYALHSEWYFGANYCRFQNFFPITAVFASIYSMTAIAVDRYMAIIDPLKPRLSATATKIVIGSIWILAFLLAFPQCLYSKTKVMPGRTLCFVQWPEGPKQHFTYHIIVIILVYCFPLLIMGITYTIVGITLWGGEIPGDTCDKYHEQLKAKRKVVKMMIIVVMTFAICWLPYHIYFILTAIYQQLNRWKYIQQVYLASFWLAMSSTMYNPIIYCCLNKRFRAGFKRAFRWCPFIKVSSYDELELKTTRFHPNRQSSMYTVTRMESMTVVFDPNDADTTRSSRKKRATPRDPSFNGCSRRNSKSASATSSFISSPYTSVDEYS", "experiment": "biochemical", "type": "binding", "details": "read-out: Data Ki (hNK-3 receptor affinity)", "protocol": "[^3H]SR142801 Competition Binding Assay\nhNK3 receptor binding experiment were performed using [^3H]SR142801 (Catalog No. TRK1035, specific activity: 74.0 Ci/mmol, Amersham, GE Healthcare UK limited, Buckinghamshire, UK) and membrane isolated from HEK293 cells transiently expressing recombinant human NK3 receptor. After thawing, the membrane homogenates were centrifuged at 48,000×g for […] at 4° C., the pellets were resuspended in the 50 mM Tris-HCl, 4 mM MnCl2, 1 μM phosphoramidon, 0.1% BSA binding buffer at pH 7.4 to a final assay concentration of 5 μg protein/well. For inhibition experiments, membranes were incubated with [^3H]SR142801 at a concentration equal to KD value of radioligand and 10 concentrations of the inhibitory compound (0.0003-10 μM) (in a total reaction volume of 500 μl) for 75 min at room temperature (RT). At the end of the incubation, membranes were filtered onto unitfilter (96-well white microplate with bonded GF/C filter preincubated 1 h in 0.3% PEI+0.3% BSA, Packard BioScience, Meriden, Conn.) with a Filtermate 196 harvester (Packard BioScience) and washed 4 times with ice-cold 50 mM Tris-HCl, pH 7.4 buffer. Nonspecific binding was measured in the presence of 10 μM SB222200 for both radioligands. The radioactivity on the filter was counted (5 min) on a Packard Top-count microplate scintillation counter with quenching correction after addition of 45 μl of microscint 40 (Canberra Packard S.A., Zürich, Switzerland) and shaking for 1 h. Inhibition curves were fitted according to the Hill equation: y=100/(1+(x/IC50)^nH), where nH=slope factor using Excel-fit 4 software (Microsoft). IC50 values were derived from the inhibition curve and the affinity constant (Ki) values were calculated using the Cheng-Prussoff equation Ki=IC50/(1+[L]/KD) where [L] is the concentration of radioligand and KD is its dissociation constant at the receptor, derived from the saturation isotherm. All experiments were performed in duplicate and the mean±standard error (SEM) of the individual Ki values was calculated.", "key": {"[1]": {"details": "[3H]SR142801, membranes of HEK293 cells transiently expressing recombinant human NK3 receptor"}}, "note": "pKi: −log10 of the molar value. Read-outs that look alike come from different tables or passages of the source.", "data": [{"smiles": "CCN(C(=O)Oc1ccc(F)cc1)[C@@H]1CN(C(=O)C2CCN(c3ccc(C#N)nc3)CC2)C[C@H]1c1ccc(Cl)c(F)c1", "note": "[Example 43, [(3S,4R)-4-(4-Chloro-3-fluoro-phenyl)-1-(6′-cyano-3,4,5,6-tetrahydro-2H-[1,3′]bipyridinyl-4-carbonyl)-pyrrolidin-3-yl]-ethyl-carbamic acid 4-fluoro-phenyl ester]", "values": [{"measurement": "pKi", "setting": "[1]", "result": 9.52}]}, {"smiles": "CCN(C(=O)Oc1ccc(F)cc1)[C@@H]1CN(C(=O)C2CCN(C(=O)C3(C)CC3)CC2)C[C@H]1c1ccc(Cl)c(F)c1", "note": "[Example 44, {(3S,4R)-4-(4-Chloro-3-fluoro-phenyl)-1-[1-(1-methyl-cyclopropanecarbonyl)-piperidine-4-carbonyl]-pyrrolidin-3-yl}-ethyl-carbamic acid 4-fluoro-phenyl ester]", "values": [{"measurement": "pKi", "setting": "[1]", "result": 8.70}]}, {"smiles": "CCN(C(=O)Oc1ccc(F)cc1)[C@@H]1CN(C(=O)C2CCN(c3cc(C#N)ccn3)CC2)C[C@H]1c1ccc(Cl)c(F)c1", "note": "[Example 45, [(3S,4R)-4-(4-Chloro-3-fluoro-phenyl)-1-(4′-cyano-3,4,5,6-tetrahydro-2H-[1,2′]bipyridinyl-4-carbonyl)-pyrrolidin-3-yl]-ethyl-carbamic acid 4-fluoro-phenyl ester]", "values": [{"measurement": "pKi", "result": 8.52}]}, {"smiles": "CCN(C(=O)Oc1ccc(F)cc1)[C@@H]1CN(C(=O)C2CCN(c3ccc(F)cn3)CC2)C[C@H]1c1ccc(Cl)c(F)c1", "note": "[Example 46, [(3S,4R)-4-(4-Chloro-3-fluoro-phenyl)-1-(5′-fluoro-3,4,5,6-tetrahydro-2H-[1,2′]bipyridinyl-4-carbonyl)-pyrrolidin-3-yl]-ethyl-carbamic acid 4-fluoro-phenyl ester]", "values": [{"measurement": "pKi", "setting": "[1]", "result": 9.00}]}, {"smiles": "CCN(C(=O)Oc1ccc(F)cc1)[C@@H]1CN(C(=O)C2CCN(c3ccc(C)cn3)CC2)C[C@H]1c1ccc(Cl)c(F)c1", "note": "[Example 47, [(3S,4R)-4-(4-Chloro-3-fluoro-phenyl)-1-(5′-methyl-3,4,5,6-tetrahydro-2H-[1,2′]bipyridinyl-4-carbonyl)-pyrrolidin-3-yl]-ethyl-carbamic acid 4-fluoro-phenyl ester]", "values": [{"measurement": "pKi", "setting": "[1]", "result": 8.70}]}, {"smiles": "CCN(C(=O)Oc1ccc(F)cc1)[C@@H]1CN(C(=O)C2CCN(c3ccc(C#N)cn3)CC2)C[C@H]1c1ccc(F)c(F)c1", "note": "[Example 48, [(3S,4R)-1-(5′-Cyano-3,4,5,6-tetrahydro-2H-[1,2′]bipyridinyl-4-carbonyl)-4-(3,4-difluoro-phenyl)-pyrrolidin-3-yl]-ethyl-carbamic acid 4-fluoro-phenyl ester]", "values": [{"measurement": "pKi", "setting": "[1]", "result": 8.70}]}, {"smiles": "CCN(C(=O)Oc1ccc(F)cc1)[C@@H]1CN(C(=O)C2CCN(c3ccc(Cl)cn3)CC2)C[C@H]1c1ccc(F)c(F)c1", "note": "[Example 49, [(3S,4R)-1-(5′-Chloro-3,4,5,6-tetrahydro-2H-[1,2′]bipyridinyl-4-carbonyl)-4-(3,4-difluoro-phenyl)-pyrrolidin-3-yl]-ethyl-carbamic acid 4-fluoro-phenyl ester]", "values": [{"measurement": "pKi", "setting": "[1]", "result": 8.30}]}, {"smiles": "CCN(C(=O)Oc1ccc(F)cc1)[C@@H]1CN(C(=O)C2CCN(c3ccc(C#N)nc3)CC2)C[C@H]1c1ccc(F)c(F)c1", "note": "[Example 51, [(3S,4R)-1-(6′-Cyano-3,4,5,6-tetrahydro-2H-[1,3′]bipyridinyl-4-carbonyl)-4-(3,4-difluoro-phenyl)-pyrrolidin-3-yl]-ethyl-carbamic acid 4-fluoro-phenyl ester]", "values": [{"measurement": "pKi", "setting": "[1]", "result": 8.70}]}, {"smiles": "CCN(C(=O)Oc1ccc(F)cc1)[C@@H]1CN(C(=O)C2CCN(C(=O)C3(C)CC3)CC2)C[C@H]1c1ccc(F)c(F)c1", "note": "[Example 52, {(3S,4R)-4-(3,4-Difluoro-phenyl)-1-[1-(1-methyl-cyclopropanecarbonyl)-piperidine-4-carbonyl]-pyrrolidin-3-yl}-ethyl-carbamic acid 4-fluoro-phenyl ester]", "values": [{"measurement": "pKi", "setting": "[1]", "result": 7.82}]}, {"smiles": "CCN(C(=O)Oc1ccc(F)cc1)[C@@H]1CN(C(=O)C2CCN(c3cc(C#N)ccn3)CC2)C[C@H]1c1ccc(F)c(F)c1", "note": "[Example 53, [(3S,4R)-1-(4′-Cyano-3,4,5,6-tetrahydro-2H-[1,2′]bipyridinyl-4-carbonyl)-4-(3,4-difluoro-phenyl)-pyrrolidin-3-yl]-ethyl-carbamic acid 4-fluoro-phenyl ester]", "values": [{"measurement": "pKi", "setting": "[1]", "result": 7.80}]}]}
